20 molecules from US20250270200A1, “CTPS1 INHIBITORS AND USES THEREOF” (Nimbus Clotho, Inc., priority 2022, published 2025) can be followed below.

This test addresses T1, human CTPS1 (Homo sapiens, UniProt P17812).
T1 sequence (P17812 1-591): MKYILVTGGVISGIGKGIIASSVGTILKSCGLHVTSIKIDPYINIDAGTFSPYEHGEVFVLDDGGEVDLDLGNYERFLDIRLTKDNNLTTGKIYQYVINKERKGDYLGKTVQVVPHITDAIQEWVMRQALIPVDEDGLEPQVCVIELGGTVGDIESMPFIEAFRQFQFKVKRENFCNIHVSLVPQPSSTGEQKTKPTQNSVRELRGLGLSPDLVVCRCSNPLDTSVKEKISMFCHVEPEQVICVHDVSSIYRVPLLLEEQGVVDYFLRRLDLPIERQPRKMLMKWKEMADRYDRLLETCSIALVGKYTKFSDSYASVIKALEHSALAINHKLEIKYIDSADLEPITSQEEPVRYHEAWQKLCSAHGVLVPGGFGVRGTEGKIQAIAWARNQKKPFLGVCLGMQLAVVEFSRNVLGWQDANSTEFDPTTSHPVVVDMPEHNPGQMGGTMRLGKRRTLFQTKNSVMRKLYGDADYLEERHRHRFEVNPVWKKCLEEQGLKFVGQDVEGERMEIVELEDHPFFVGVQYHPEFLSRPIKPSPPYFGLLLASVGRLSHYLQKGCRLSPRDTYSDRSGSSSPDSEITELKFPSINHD
As to the kind of experiment: ADP-Glo assay, human CTPS1 enzyme inhibition. The format is biochemical. Particulars: wild-type human CTPS1, 25 nM enzyme; ADP-Glo; read-out: ADP-Glo_WT_hCTPS1—25 nM_IC50 (IC50). A digest of the protocol: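 ADP-Glo luminescence quantified ADP produced by 25 nM purified human CTPS1 (full length, FLAG-His tagged) at 25° C within the linear phase. Final substrates: ATP 120 μM, UTP 160 μM, GTP 60 μM, L-glutamine 100 μM; 1% DMSO; pH 7.4 HEPES buffer with Mg2+, KCl, DTT. Compound pre-incubated with enzyme 10 min, then with ATP/UTP 10 min.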
For orientation: ADP-Glo turns the ADP formed in a reaction into a luminescent signal.

SMILES strings stand for the structures. “And” between values parts separate entries of the source, which are not always exact repeats. Identical values can stand only once.

Regarding `O=C(N[C@@H](c1cc(NS(=O)(=O)C2CC2)ccn1)C1CCOCC1)c1ncc(-c2cnn3ccc(Cl)cc23)s1` [I-86, (R)-5-(5-chloropyrazolo[1,5-a]pyridin-3-yl)-N-((4-(cyclopropanesulfonamido)pyridin-2-yl)(tetrahydro-2H-pyran-4-yl)methyl)thiazole-2-carboxamide], the IC50 (in general, the concentration at which inhibition is half-maximal) was in the range of 0.005 to 0.025 µM. `CCOc1cncc(-c2cnc(C(=O)N[C@]3(c4cc(NS(=O)(=O)C5CC5)ccn4)C[C@H](O)C3)s2)n1` [I-87, N-((1s,3s)-1-(4-(cyclopropanesulfonamido)pyridin-2-yl)-3-hydroxycyclobutyl)-5-(6-ethoxypyrazin-2-yl)thiazole-2-carboxamide]: the IC50 is ≤ 0.005 µM. As for `CCOc1cncc(-c2cnc(C(=O)N[C@]3(c4cc(NS(=O)(=O)C5CC5)ccn4)C[C@@H](O)C3)s2)n1` [I-88, N-((1r,3r)-1-(4-(cyclopropanesulfonamido)pyridin-2-yl)-3-hydroxycyclobutyl)-5-(6-ethoxypyrazin-2-yl)thiazole-2-carboxamide], the figure is ≤ 0.005 µM; as for `O=C(N[C@]1(c2cc(NS(=O)(=O)C3CC3)ccn2)C[C@H](O)C1)c1ncc(-c2cnn3ccc(Cl)cc23)s1` [I-89, 5-(5-chloropyrazolo[1,5-a]pyridin-3-yl)-N-((1s,3s)-1-(4-(cyclopropanesulfonamido)pyridin-2-yl)-3-hydroxycyclobutyl)thiazole-2-carboxamide], 0.005 to 0.025 µM.

In the case of `O=C(N[C@]1(c2cc(NS(=O)(=O)C3CC3)ccn2)C[C@@H](O)C1)c1ncc(-c2cnn3ccc(Cl)cc23)s1` [I-90, 5-(5-chloropyrazolo[1,5-a]pyridin-3-yl)-N-((1r,3r)-1-(4-(cyclopropanesulfonamido)pyridin-2-yl)-3-hydroxycyclobutyl)thiazole-2-carboxamide], the IC50 is 0.005 to 0.025 µM.

Turning to `CCOc1cncc(-c2cnc(C(=O)N[C@@H](c3cc(NS(=O)(=O)C4CC4)ccn3)C(C)(C)OC)s2)n1` [I-91, (S)-N-(1-(4-(cyclopropanesulfonamido)pyridin-2-yl)-2-methoxy-2-methylpropyl)-5-(6-ethoxypyrazin-2-yl)thiazole-2-carboxamide], the IC50 was 0.005 to 0.025 µM. The result for `CCOc1cncc(-c2cnc(C(=O)N[C@H](c3cc(NS(=O)(=O)C4CC4)ccn3)C(C)(C)OC)s2)n1` [I-92, (R)-N-(1-(4-(cyclopropanesulfonamido)pyridin-2-yl)-2-methoxy-2-methylpropyl)-5-(6-ethoxypyrazin-2-yl)thiazole-2-carboxamide] reads 0.025 to 0.05 µM; that for `CCOc1cncc(-c2cnc(C(=O)N[C@H](c3cc(NS(=O)(=O)C4CC4)ccn3)[C@H]3CCN(C4CCCC4)C3)s2)n1` [I-93, N-((S)-((S)-1-cyclopentylpyrrolidin-3-yl)(4-(cyclopropanesulfonamido)pyridin-2-yl)methyl)-5-(6-ethoxypyrazin-2-yl)thiazole-2-carboxamide], 0.005 to 0.025 µM. The result for `CCOc1cncc(-c2cnc(C(=O)N[C@H](c3cc(NS(=O)(=O)C4CC4)ccn3)[C@@H]3CCN(C4CCCC4)C3)s2)n1` [I-94, N-((S)-((R)-1-cyclopentylpyrrolidin-3-yl)(4-(cyclopropanesulfonamido)pyridin-2-yl)methyl)-5-(6-ethoxypyrazin-2-yl)thiazole-2-carboxamide] reads > 0.1 µM; that for `CCOc1cncc(-c2cnc(C(=O)N[C@@H](c3cc(NS(=O)(=O)C4CC4)ccn3)[C@@H]3CCN(C4CCCC4)C3)s2)n1` [I-95, N-((R)-((R)-1-cyclopentylpyrrolidin-3-yl)(4-(cyclopropanesulfonamido)pyridin-2-yl)methyl)-5-(6-ethoxypyrazin-2-yl)thiazole-2-carboxamide], 0.005 to 0.025 µM. As for `CCOc1cncc(-c2cnc(C(=O)N[C@@H](c3cc(NS(=O)(=O)C4CC4)ccn3)[C@H]3CCN(C4CCCC4)C3)s2)n1` [I-96, N-((R)-((S)-1-cyclopentylpyrrolidin-3-yl)(4-(cyclopropanesulfonamido)pyridin-2-yl)methyl)-5-(6-ethoxypyrazin-2-yl)thiazole-2-carboxamide], the figure is 0.005 to 0.025 µM. With `CCOc1cncc(-c2cnc(C(=O)N[C@H](c3cc(NS(=O)(=O)C4CC4)ccn3)[C@H]3CN(C)CCO3)s2)n1` [I-97, N-((R)-(4-(cyclopropanesulfonamido)pyridin-2-yl)((R)-4-methylmorpholin-2-yl)methyl)-5-(6-ethoxypyrazin-2-yl)thiazole-2-carboxamide], the IC50 was 0.025 to 0.05 µM and 0.005 to 0.025 µM. Consider `CCOc1cncc(-c2cnc(C(=O)N[C@@H](COC)c3nccc(NS(=O)(=O)C4CC4)n3)s2)n1` [I-98, (R)-N-(1-(4-(cyclopropanesulfonamido)pyrimidin-2-yl)-2-methoxyethyl)-5-(6-ethoxypyrazin-2-yl)thiazole-2-carboxamide], for which the IC50 was 0.025 to 0.05 µM. As for `CCOc1cncc(-c2cnc(C(=O)N[C@H](c3cc(NS(=O)(=O)C4CC4)ccn3)[C@@H]3CN(C)CCO3)s2)n1` [I-99, N-((R)-(4-(cyclopropanesulfonamido)pyridin-2-yl)((S)-4-methylmorpholin-2-yl)methyl)-5-(6-ethoxypyrazin-2-yl)thiazole-2-carboxamide], the figure is 0.005 to 0.025 µM.

As to `CCOc1cncc(-c2cnc(C(=O)N[C@@H](c3cc(NS(=O)(=O)C4CC4)ccn3)[C@H]3CN(C)CCO3)s2)n1` [I-100, N-((S)-(4-(cyclopropanesulfonamido)pyridin-2-yl)((R)-4-methylmorpholin-2-yl)methyl)-5-(6-ethoxypyrazin-2-yl)thiazole-2-carboxamide], the concentration for half-maximal inhibition (IC50) lay within 0.005 to 0.025 µM. Turning to `CCOc1cncc(-c2cnc(C(=O)N[C@@H](c3cc(NS(=O)(=O)C4CC4)ccn3)[C@@H]3CN(C)CCO3)s2)n1` [I-101, N-((S)-(4-(cyclopropanesulfonamido)pyridin-2-yl)((S)-4-methylmorpholin-2-yl)methyl)-5-(6-ethoxypyrazin-2-yl)thiazole-2-carboxamide], the 50% inhibitory concentration (IC50) lay within 0.005 to 0.025 µM. As for `CCOc1cncc(-c2cnc(C(=O)N[C@@H](C[C@H]3COCCN3C)c3cc(NS(=O)(=O)C4CC4)ccn3)s2)n1` [I-102, N-((S)-1-(4-(cyclopropanesulfonamido)pyridin-2-yl)-2-((S)-4-methylmorpholin-3-yl)ethyl)-5-(6-ethoxypyrazin-2-yl)thiazole-2-carboxamide], the figure is 0.05 to 0.1 µM.

On to `CCOc1cncc(-c2cnc(C(=O)N[C@H](C[C@H]3COCCN3C)c3cc(NS(=O)(=O)C4CC4)ccn3)s2)n1` [I-104, N-((R)-1-(4-(cyclopropanesulfonamido)pyridin-2-yl)-2-((S)-4-methylmorpholin-3-yl)ethyl)-5-(6-ethoxypyrazin-2-yl)thiazole-2-carboxamide], for which the IC50 is ≤ 0.005 µM. As for `CCOc1cncc(-c2cnc(C(=O)N[C@H](c3cc(NS(=O)(=O)C4CC4)ccn3)[C@H]3CCN(CCF)C3)s2)n1` [I-107, N-((S)-(4-(cyclopropanesulfonamido)pyridin-2-yl)((S)-1-(2-fluoroethyl)pyrrolidin-3-yl)methyl)-5-(6-ethoxypyrazin-2-yl)thiazole-2-carboxamide], the figure is 0.05 to 0.1 µM; as for `CCOc1cncc(-c2cnc(C(=O)N[C@H](c3cc(NS(=O)(=O)C4CC4)ccn3)[C@@H]3CCN(CCF)C3)s2)n1` [I-108, N-((S)-(4-(cyclopropanesulfonamido)pyridin-2-yl)((R)-1-(2-fluoroethyl)pyrrolidin-3-yl)methyl)-5-(6-ethoxypyrazin-2-yl)thiazole-2-carboxamide], 0.005 to 0.025 µM.
